The pIC50 is the IC50 on a negative log10 scale, so that one unit is a factor of ten. The low end stands for a large IC50, the high end for a small IC50. By inhibition is commonly meant the relative decrease from the control value, in per cent. By pEC50 is commonly meant the negative decadic logarithm of the EC50, by convention in mol/L. The bioavailability is the share of a dose that reaches the circulation, judged against a reference dose that is usually intravenous. A higher bioavailability goes with good availability.

pEC50, pIC50: −log10 of the molar value. The source made the active and inactive calls. The rule behind the calls is not given here.

Data set [1] has as its target Leucine-rich repeat serine/threonine-protein kinase 2 (Homo sapiens, UniProt Q5S007, G2019S). Briefly: Inhibition of LRRK2 G2019S mutant ([…]) (unknown origin) stably expressed in HEK293 cell lysate using [gamma-32P] after 15 mins by Cerenkov counting method. It counts as cell-free.
The nature of data set [2]: Inhibition of IL6 secretion in LPS/IL-1beta-stimulated human U87 cells compound pretreated at 10 uM for 30 mins before stimulation measured after 24 hrs by ELISA. In kind it is functional, U-87MG ATCC. The settings on record: U-87 MG. For orientation: ELISA stands for enzyme-linked immunosorbent assay.
Data set [3] is described as follows: (§1) Inhibition of IL6 secretion in LPS/IL-1beta-stimulated human primary microglia compound pretreated at 10 uM for 30 mins before stimulation measured after 24 hrs by ELISA. It counts as functional.
Data set [4] is filed under the species Homo sapiens. Described as §1. In kind it is functional.
Data set [5] in a line: Inhibition of IL6 secretion in LPS/IL-1beta-stimulated human primary microglia compound pretreated for 30 mins before stimulation measured after 24 hrs by ELISA. It counts as functional.
A short description of data set [6]: Inhibition of IL6 secretion in LPS/IL-1beta-stimulated human U87 cells compound pretreated for 30 mins before stimulation measured after 24 hrs by ELISA. In kind it is functional, cell-based, U-87MG ATCC. The settings on record: U-87 MG.
Data set [7] can be described thus: Biochemical index, ratio of IC50 for LRRK2 G2019S mutant (unknown origin) to EC50 for IL6 secretion in LPS/IL-1beta-stimulated human primary microglia.
Data set [8] in a line: Oral bioavailability in mouse. The settings on record: in vivo. It counts as ADME, organism-based.

Leucine-rich repeat serine/threonine-protein kinase 2, sequence (Q5S007 whole entry G2019S): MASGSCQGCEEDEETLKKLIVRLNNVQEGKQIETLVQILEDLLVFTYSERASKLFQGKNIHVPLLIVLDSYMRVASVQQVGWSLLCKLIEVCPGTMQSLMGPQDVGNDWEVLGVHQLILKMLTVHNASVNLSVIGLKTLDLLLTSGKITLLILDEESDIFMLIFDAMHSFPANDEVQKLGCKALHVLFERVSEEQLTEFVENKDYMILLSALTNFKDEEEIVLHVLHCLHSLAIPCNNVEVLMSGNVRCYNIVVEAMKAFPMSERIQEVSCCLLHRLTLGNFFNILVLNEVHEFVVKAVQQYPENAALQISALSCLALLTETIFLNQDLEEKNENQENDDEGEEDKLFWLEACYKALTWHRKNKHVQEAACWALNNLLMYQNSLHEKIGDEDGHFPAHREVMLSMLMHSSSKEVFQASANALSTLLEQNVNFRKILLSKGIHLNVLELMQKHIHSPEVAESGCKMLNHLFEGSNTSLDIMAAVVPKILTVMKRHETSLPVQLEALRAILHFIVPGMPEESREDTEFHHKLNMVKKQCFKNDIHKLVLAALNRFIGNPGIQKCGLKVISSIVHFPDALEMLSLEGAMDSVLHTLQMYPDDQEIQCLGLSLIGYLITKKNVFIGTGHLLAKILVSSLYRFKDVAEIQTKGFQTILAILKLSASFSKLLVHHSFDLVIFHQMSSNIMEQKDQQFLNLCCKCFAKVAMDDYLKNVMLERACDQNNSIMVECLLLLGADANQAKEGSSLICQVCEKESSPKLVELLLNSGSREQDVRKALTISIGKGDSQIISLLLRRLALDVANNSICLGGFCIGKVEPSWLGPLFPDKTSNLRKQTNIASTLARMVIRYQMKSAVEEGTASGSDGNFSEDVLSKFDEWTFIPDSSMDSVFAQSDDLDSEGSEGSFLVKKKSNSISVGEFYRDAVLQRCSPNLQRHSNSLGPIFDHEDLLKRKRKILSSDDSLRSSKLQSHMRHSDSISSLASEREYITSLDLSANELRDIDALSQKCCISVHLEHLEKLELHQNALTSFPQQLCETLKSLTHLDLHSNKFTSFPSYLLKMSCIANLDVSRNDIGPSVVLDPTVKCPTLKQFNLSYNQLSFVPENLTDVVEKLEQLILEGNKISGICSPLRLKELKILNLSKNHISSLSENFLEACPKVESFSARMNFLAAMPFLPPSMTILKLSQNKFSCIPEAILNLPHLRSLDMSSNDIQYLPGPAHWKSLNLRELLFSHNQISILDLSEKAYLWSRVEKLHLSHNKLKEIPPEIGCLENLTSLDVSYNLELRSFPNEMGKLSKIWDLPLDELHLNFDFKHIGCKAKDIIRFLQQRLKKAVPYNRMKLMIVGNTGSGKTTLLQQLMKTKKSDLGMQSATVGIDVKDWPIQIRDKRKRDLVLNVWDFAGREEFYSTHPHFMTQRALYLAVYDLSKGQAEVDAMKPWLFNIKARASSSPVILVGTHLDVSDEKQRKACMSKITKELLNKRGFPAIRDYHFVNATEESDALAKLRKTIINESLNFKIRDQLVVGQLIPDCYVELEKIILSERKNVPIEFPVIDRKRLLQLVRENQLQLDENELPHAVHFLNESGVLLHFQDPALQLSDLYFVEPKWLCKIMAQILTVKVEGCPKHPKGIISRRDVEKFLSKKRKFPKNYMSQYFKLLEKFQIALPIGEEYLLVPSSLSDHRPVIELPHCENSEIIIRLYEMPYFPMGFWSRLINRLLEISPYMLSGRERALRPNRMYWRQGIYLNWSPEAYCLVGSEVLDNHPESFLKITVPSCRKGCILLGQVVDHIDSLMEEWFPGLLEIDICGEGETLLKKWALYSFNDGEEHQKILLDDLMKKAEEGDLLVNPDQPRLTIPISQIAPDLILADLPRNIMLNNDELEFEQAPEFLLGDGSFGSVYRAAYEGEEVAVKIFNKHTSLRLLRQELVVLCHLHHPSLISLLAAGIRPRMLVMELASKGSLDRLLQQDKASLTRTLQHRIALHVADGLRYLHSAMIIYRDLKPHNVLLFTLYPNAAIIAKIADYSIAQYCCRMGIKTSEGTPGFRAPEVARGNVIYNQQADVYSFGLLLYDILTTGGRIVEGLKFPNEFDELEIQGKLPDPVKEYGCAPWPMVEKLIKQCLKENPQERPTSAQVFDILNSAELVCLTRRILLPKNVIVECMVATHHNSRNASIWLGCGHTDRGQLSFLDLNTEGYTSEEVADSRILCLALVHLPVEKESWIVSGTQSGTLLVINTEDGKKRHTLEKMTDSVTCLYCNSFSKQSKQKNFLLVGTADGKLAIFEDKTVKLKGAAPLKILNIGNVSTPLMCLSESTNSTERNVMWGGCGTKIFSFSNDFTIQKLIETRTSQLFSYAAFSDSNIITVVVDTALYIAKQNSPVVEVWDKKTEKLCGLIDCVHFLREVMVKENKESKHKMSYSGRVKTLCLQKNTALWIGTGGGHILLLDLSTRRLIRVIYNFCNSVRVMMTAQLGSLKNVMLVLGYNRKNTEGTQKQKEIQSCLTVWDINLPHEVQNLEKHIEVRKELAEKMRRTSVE

Turning to `O=C(c1ccc(Nc2cncnc2)c(Cl)c1)N1CCC(N2CCCCC2)CC1`, the pIC50 in data set [1] was less than 6.00. In data set [2], the inhibition at 10 µM was found to be 40.7%.
As to `COc1cccc(CNc2ccc(C(=O)N3CCC(N4CCCCC4)CC3)cc2Cl)c1`, the pIC50 in data set [1] is less than 6.00. Further, the inhibition at 10 µM in data set [3] stood at 52.9%; in data set [2], 52%.
In turn, `Nc1ccc(C(=O)N2CCC(N3CCCCC3)CC2)cc1Cl` had a pIC50 in data set [1] of 6.18. The inhibition at 10 µM in data set [3] came to 16.9%; in data set [2], 49.9%.
In data set [1], `CN1C(=O)c2ccccc2N(C)c2nc(Cl)ncc21` showed a pIC50 of less than 6.00. The inhibition at 10 µM is 18% in data set [3] and 23.2% in data set [2].
For the compound `O=C(c1ccc(Nc2ncccn2)c(Cl)c1)N1CCC(N2CCCCC2)CC1`, the pIC50 in data set [1] was less than 6.00. Also, the inhibition at 10 µM in data set [3] was found to be 46.4%; in data set [2], 39.3%.
The like results for `COc1cccc(Nc2ccc(C(=O)N3CCC(N4CCCCC4)CC3)cc2Cl)c1` were, in that order, less than 6.00, 53% and 47.8%.
As for `CCCNc1ccc(C(=O)N2CCC(N3CCCCC3)CC2)cc1Cl`, the pIC50 in data set [1] was less than 6.00. In addition, the inhibition at 10 µM in data set [3] was 47.6%; in data set [2] it was 55.8%.
For `O=C(c1ccc(Nc2ccccn2)c(Cl)c1)N1CCC(N2CCCCC2)CC1` the same measures were less than 6.00, 7.3% and 46.7%.
`O=C(c1ccc(NCc2ccc([N+](=O)[O-])cc2)c(Cl)c1)N1CCC(N2CCCCC2)CC1` gave a pIC50 in data set [1] of less than 6.00. Besides, the inhibition at 10 µM in data set [3] was 56.3%; in data set [2] it was 56.4%.
For `O=C(c1ccc(Nc2cccnc2)c(Cl)c1)N1CCC(N2CCCCC2)CC1` the same measures were less than 6.00, 36.3% and 46.6%.
The like results for `CN1Cc2ccccc2N(C)c2nc(Cl)ncc21` were, in that order, less than 6.00, 6.3% and 64.6%.
As to `Cn1cccc1CNc1ccc(C(=O)N2CCC(N3CCCCC3)CC2)cc1Cl`, in data set [1], the pIC50 is less than 6.00. In addition, the inhibition at 10 µM is 17.3% in data set [3] and 42.4% in data set [2].
The compound `O=C(c1ccc(Nc2ccc([N+](=O)[O-])cc2)c(Cl)c1)N1CCC(N2CCCCC2)CC1` had a pIC50 in data set [1] of less than 6.00. The values for the inhibition at 10 µM in data set [3] and in data set [2] were 53.6% and 47.9%, respectively.
As to `Cc1ccc(CNc2ccc(C(=O)N3CCC(N4CCCCC4)CC3)cc2Cl)cc1`, the pIC50 in data set [1] is less than 6.00. Besides, the inhibition at 10 µM worked out at 42% in data set [3] and 36.1% in data set [2].
The like results for `O=C(c1ccc(Nc2ccccc2)c(Cl)c1)N1CCC(N2CCCCC2)CC1` were, in that order, less than 6.00, 44.7% and 32.3%.
The like results for `O=C(c1ccc(Nc2ccccc2[N+](=O)[O-])c(Cl)c1)N1CCC(N2CCCCC2)CC1` were, in that order, less than 6.00, 65.4% and 45.6%.
Compound `CC(=O)Nc1ccc(Nc2ccc(C(=O)N3CCC(N4CCCCC4)CC3)cc2Cl)cc1` gave a pIC50 in data set [1] of less than 6.00. Besides, the inhibition at 10 µM in data set [3] is 31.8%; in data set [2], 36.1%.
Take `O=C(c1ccc(NCc2ccccc2)c(Cl)c1)N1CCC(N2CCCCC2)CC1`: the pIC50 in data set [1] is less than 6.00. The inhibition at 10 µM in data set [3] was found to be 65.3%; in data set [2], 62.6%.
`O=C(Nc1ccc(C(=O)N2CCC(N3CCCCC3)CC2)cc1Cl)c1ccc[nH]1` had a negative-log IC50 (pIC50) in data set [1] of less than 6.00. In addition, the inhibition result in data set [4] is “inactive”. For the same compound, the inhibition at 10 µM in data set [2] came to 51.9%.
Take `CN1Cc2ccccc2N(C)c2nc(Nc3ccc(C(=O)N4CCC(N5CCCCC5)CC4)cc3Cl)ncc21`: the pIC50 in data set [1] was 7.29. In addition, the inhibition at 10 µM in data set [3] stood at 70%; in data set [2] it was 58.8%.
For `Cc1ccc(Nc2ccc(C(=O)N3CCC(N4CCCCC4)CC3)cc2Cl)cc1` the same measures were less than 6.00, 29.7% and 37.8%.
For `COc1ccccc1Nc1ccc(C(=O)N2CCC(N3CCCCC3)CC2)cc1Cl` the same measures were less than 6.00, 56.6% and 58.6%.
In turn, `CN1C(=O)c2ccccc2N(C)c2nc(Nc3ccc(C(=O)N4CCC(N5CCCCC5)CC4)cc3Cl)ncc21` gave a pIC50 in data set [1] of 7.14. Moreover, the values for the inhibition at 10 µM in data set [3] and in data set [2] were 81.3% and 87.9%, respectively. Moreover, the pEC50 was 5.37 in data set [5] and 5.43 in data set [6]. Moreover, the “Ratio IC50/EC50” value in data set [7] is given as 0.017.
Compound `O=C(c1ccc(NC2CCCCC2)c(Cl)c1)N1CCC(N2CCCCC2)CC1` showed a pIC50 in data set [1] of less than 6.00. Moreover, the inhibition at 10 µM is 82.4% in data set [3] and 54.2% in data set [2].
Compound `COc1cc(C(=O)N2CCC(N3CCN(C)CC3)CC2)ccc1Nc1ncc2c(n1)N(C)c1ccccc1C(=O)N2C` showed a pIC50 in data set [1] of 8.10. For the same compound, the inhibition at 10 µM came out at 95% in data set [3] and 94.1% in data set [2]. In addition, the pEC50 in data set [5] is 6.08; in data set [6], 6.18. The “Ratio IC50/EC50” value in data set [7] came to 0.009. The compound further had a bioavailability in data set [8] of 49.3%.

These data come from ChEMBL document CHEMBL3407393, “Optimisation of LRRK2 inhibitors and assessment of functional efficacy in cell-based models of neuroinflammation” (Eur J Med Chem, 2015).
